Source: patent US7166440B2, “2,4,5-trichlorophenoxyalkyl carboxylic acid and a method for determining dioxins using the same” (priority 2003, dated 2007)

Columns and labels:
[1] = test system: monoclonal antibody of clone C-1 (anti-dioxin antibody); assay: Competitive EIA: inhibition of binding of clone C-1 monoclonal antibody to solid-phase antigen by free dioxin; set-up: species or system mouse
Method: (§1) Using various monoclonal antibodies, the specificity of the monoclonal antibodies to dioxin isomers was examined. The monoclonal antibodies were prepared in the following manner. An antibody-producing cell was injected into the abdominal cavity of a pristane-pretreated mouse. Th ascites fluid in the abdominal cavity caused by the growth of the cells was collected, and then a monoclonal antibody was purified by affinity chromatography using a protein G-Sepharose (manufactured by BIO-RAD Co.) as a carrier. Using three antibody-producing clones C-1, C-2 and C-3, respective monoclonal antibodies were prepared. The clones C-1, C-2 and C-3 produce monoclonal antibodies with respect to dibenzodioxin having chlorine atom at the 2-, 3-, 7-, and 8-positions.
(§2) To evaluate the specificity of the monoclonal antibody was performed according to the following principles. A solid-phase antigen (competitor) and a free dioxin (ligand) are allowed to compete with each other with respect to a free monoclonal antibody (anti-dioxin antibody). If the reactivity of the monoclonal antibody and the dioxin is higher than that of the monoclonal antibody and the solid-phase antigen, the binding of the monoclonal antibody to the solid-phase antigen is reduced. This reduction of the binding of the monoclonal antibody to the solid-phase antigen can be measured by color development method. This phenomenon can be applied to evaluate the specificity.
(§3) First, the immune antigen or the compound (IIa) conjugated with BSA that was produced in Example 2 was diluted with PBS to 1 μg/ml, and divided into each well of a 96-well assay plate (manufactured by Costar, Cat. No. 3590) in an amount of 50 μl. Then, the plate was sealed and allowed to stand at room temperature for one hour. Then, each well was washed with PBS containing 0.005% of Tween 20 three times. Next, 300 μl of Block Ace (manufactured by Snow Brand Milk Products Co., Ltd.) diluted with distilled water to a concentration of 25% was supplied to each well, and the plate was sealed and allowed to stand at 37° C. for two hours. Each well was washed with PBS containing 0.005% of Tween 20 three times. Then, a 25 μl of the dioxin compound solution of a final concentration of 5×10^−7 M was added to each well. The dioxin compound solution was prepared by diluting the dioxin with a dilution solvent comprising 20% DMSO and 0.01% of Triton X100. As controls, a dilution solvent in an amount of 25 μl was added to each well. Immediately after the addition of the dioxin compound solution or the dilution solvent, 25 μl of an antibody solution diluted with PBS containing 1 mg/ml of BSA was added to each well. The assay plate was stand at room temperature for one hour with slightly shaking.
(§4) After washing with PBS containing 0.005% of Tween 20 three times, 50 μl of the diluted HRP-labeled goat anti-mouse IgG (H+L) antibody (produced by affinity purification) was added to each well. The diluted HRP-labeled antibody was prepared by diluting the purchased HRP-labeled antibody to 2000 times as much with 10% Block Ace. The plate was allowed to stand at room temperature for one hour, followed by washing with PBS containing 0.005% of Tween 20 three times. Then, 50 μl of a HRP substrate, TMB (manufactured by KPL Co., Ltd.), was added to each well and allowed to stand at room temperature for 5 to 10 min. Then, 5 μl of a 1 M phosphate solution was added to each well, and the absorbance at a wavelength of 455 nm (655 nm for the reference) was measured with a spectrophotometer for a microtiter. The reactivity was evaluated by obtaining the absorbance (B0) at the time when the dioxin compound is not added, which is a control (diluent) and the absorbance (B) at the time when the dioxin compound is added. The inhibition rate was measured based on the following equation. Inhibition rate={(B0−B)/B0}×100 (%)
(§5) Evaluation was such that the larger this inhibition rate is, the higher the specificity of the anti-dioxin antibody to the dioxin compound.

[2] = test system: monoclonal antibody of clone C-2 (anti-dioxin antibody); assay: Competitive EIA: inhibition of binding of clone C-2 monoclonal antibody to solid-phase antigen by free dioxin; set-up: species or system mouse
Method: as §1, §2, §3, §4, §5

[3] = test system: monoclonal antibody of clone C-3 (anti-dioxin antibody); assay: Competitive EIA: inhibition of binding of clone C-3 monoclonal antibody to solid-phase antigen by free dioxin; set-up: species or system mouse
Method: as §1, §2, §3, §4, §5

[4] = test system: anti-dioxin antibody (monoclonal antibody) to 1,2,3,7,8-PeCDF; assay type: binding, mouse; details: Table 2, dioxins having TEF; solid-phase antigen (IIa); antibody to 1,2,3,7,8-PeCDF
Method: as §3, §4
An anti-dioxin antibody (monoclonal antibody) to 1,2,3,7,8-PeCDF is used as an antibody. A haptenized product of a solid-phase antigen 6-(2,4,5-trichlorophenoxy) hexanoic acid amide derivative (IIa) and the chlorine-containing organic compounds in Tables 2 and 3 were allowed to compete with each other to this anti-dioxin antibody so that a competitive reaction was effected in the same manner as in Example 3. Then, the cross-reactivity was examined.

[5] = toxicity equivalent factor of the dioxins used; cited from earlier work
[6] = solid-phase antigen * (haptenized product of 6-(2,4,5-trichlorophenoxy) hexanoic acid amide derivative IIa), dioxin compound 5×10^−7 M
[7] = solid-phase antigen immunogen 1, dioxin compound final concentration 5×10^−7 M
[8] = solid-phase antigen immunogen 2, dioxin compound final concentration 5×10^−7 M
[9] = solid-phase antigen immunogen 3, dioxin compound final concentration 5×10^−7 M

Structure (SMILES)	Inhibition rate [1, 6] [%]	Inhibition rate [1, 7] [%]	Inhibition rate [2, 6] [%]	Inhibition rate [2, 8] [%]	Inhibition rate [3, 6] [%]	Inhibition rate [3, 9] [%]	cross reaction [4] [%]	TEF value [5]
Clc1cc2c(cc1Cl)Oc1cc(Cl)c(Cl)cc1O2 [2,3,7,8-TeCDD, 2,3,7,8-tetrachlorozibenzo-p-dioxin]	7.4	0.4	7.7	−3.0	−3.4	−0.2	1.1	1
Clc1cc2oc3cc(Cl)c(Cl)cc3c2cc1Cl [2,3,7,8-TeCDF]	8.4	1.6	37.6	15.3	4.3	−1.6	1.5	0.1
Clc1c(Cl)c(Cl)c2c(c1Cl)Oc1c(Cl)c(Cl)c(Cl)c(Cl)c1O2 [OCDD]	1.6	−2.5	9.4	0.1	−3.7	−0.4	<0.1	0.0001
Clc1c(Cl)c(Cl)c2c(oc3c(Cl)c(Cl)c(Cl)c(Cl)c32)c1Cl [OCDF]	27.0	1.1	7.2	18.1	4.9	1.3	8.0	0.0001
